In patent EP0583976A2, “Gastroprotective complexes with cyclodextrin” (Bristol-Myers Squibb Company, priority 1992, dated 1994):

Key:
beagles = test: Endoscopic scoring of aspirin-induced gastric irritation in beagles (scale 0 to 7), percent protection; type: in vivo; conditions: oral, with 975 mg aspirin (ASA), antacid about 15 mEq where present; endoscopy at two and four hours; versus Control A (ASA alone)
Method: (§1) The product obtained above was tested as follows: 10 beagles were fasted overnight. At zero time, the stomach of each animal was endoscopically examined to assure a normal mucosa. Encapsulated compositions containing about 15 mEq MgO in the freshly prepared MgO-CD complex and 975 mg aspirin (ASA) were administered orally and flushed with 50 ml water.
At two and four hours after administration of the encapsulated composition, the stomachs of the animals were endoscopically reexamined for gastric irritation. Irritation was measured according to a scale of 0 to 7, wherein zero was the condition of the mucosa for a normal stomach and a value of 7 represents massive hemorrhagic damage.
Three control tests were also conducted. In Control A the animals were administered 975 mg ASA. In Control B the animals were administered 6.27 mg α-CD and 975 aspirin and in Control C the animals were administered 15 mEq MgO and 975 aspirin.
(§2) wherein n is the number of animals, % Protection is the difference in irritation scores (on the scale of 0 to 7) between Control A and the MgO-CD complex divided by the irritation score for Control A multiplied by 100, and pH is the pH of the antrum fluid sample. The complex of the present invention is seen to have provided a substantial increase in percent protection coupled with a marked increase in pH over the controls.

[1] = pH of gastric fluid sample obtained from the antrum after dosing; type: in vivo, beagles; conditions: oral, with 975 mg aspirin (ASA), antacid about 15 mEq where present
Method: as §1
In addition, a sample of gastric fluid was obtained from the antrum, and its general appearance noted and its pH measured.
as §2

| Compound | % Protection (beagles) [%] | pH [1] |
| --- | --- | --- |
| [OH][Al]([OH])[OH] [Al(OH)₃] | 10.8 ± 4.6 | 4.72 ± 0.85 |
| CC(=O)Oc1ccccc1C(=O)O [Control A, aspirin] | 0 | 3.74 ± 0.44 |
| O=C(O)O [MgCO₃] | 2.1 ± 6.1 | 3.33 ± 0.81 |
| CaCO₃ | 3.0 ± 5 | 4.17 ± 0.90 |
